Assay results as given in patent US10828299B2 (Gilead Sciences, Inc., priority 2013, dated 2020).

The molecules below were run on human hepatocytes (assay: Human Hepatocyte Stability Assay). Settings: comparison table with known compounds; head prints (units).
Format: in vitro ADME
Procedure: The human […] stability of the compounds as predicted hepatocyte clearance in L/hr/kg was assessed. Compounds to be tested were diluted to 200 μM (4 μl of 10 mM DMSO stock into 196 μl ACN:H2O (50:50). Propranolol was used as a positive control, and buffer only without hepatocytes as 0% control. These were further diluted 4 μl with 891 μl KHB buffer (InVitroGRO catalog number Z99074) to provide 2× dosing solution. To each well of 24 well plate, 250 μl of the 2× dosing solution was added to each well with 250 μl of hepatocytes cells (1×10^6 viable cells/ml per well) or KHB for control samples to achieve a final compound concentration of 1 μM during incubation. The final solvent concentration was 0.01% DMSO and 0.25% ACN. The culture plate was placed on a rocker and incubated at 37° C., 5% CO2. Samples were collected at time 0, 1, 3, and 6 hours. The loss of parent compound was determined using LC-MS methods against a standard curve.
For `COc1ccc(Nc2nc(-c3cccc(N)c3)cn3ccnc23)cc1OC` [6-(3-aminophenyl)-N-(3,4-dimethoxyphenyl)imidazo[1,2-a]pyrazin-8-amine, reference compound], the “Hheps CL” value was 4 mL/min/kg.
With `Cc1ncc(-c2cn3ccnc3c(Nc3ccc(N4CCOCC4)cc3)n2)cc1N` [6-(5-amino-6-methylpyridin-3-yl)-N-(4-morpholinophenyl)imidazo[1,2-a]pyrazin-8-amine, reference compound] the “Hheps CL” value was 13.3 mL/min/kg.
In the case of `Nc1cncc(-c2cn3ccnc3c(Nc3ccc(N4CCOCC4)cc3)n2)c1` [6-(5-aminopyridin-3-yl)-N-(4-morpholinophenyl)imidazo[1,2-a]pyrazin-8-amine, reference compound], the “Hheps CL” value is reported as 11.3 mL/min/kg.
For `COc1ccc(Nc2nc(-c3ccc(N)nc3)cn3ccnc23)cc1OC` [6-(6-aminopyridin-3-yl)-N-(3,4-dimethoxyphenyl)imidazo[1,2-a]pyrazin-8-amine, reference compound], the “Hheps CL” value was 15 mL/min/kg.
For `Cc1ncc(-c2cn3ccnc3c(Nc3ccc(N4CCN(C5COC5)CC4)cc3)n2)nc1N` [Ex.-1, 6-(6-amino-5-methylpyrazin-2-yl)-N-(4-(4-(oxetan-3-yl)piperazin-1-yl)phenyl)imidazo[1,2-a]pyrazin-8-amine], the “Hheps CL” value was 2 mL/min/kg.
With `Nc1cncc(-c2cn3ccnc3c(Nc3ccc(N4CCN(C5COC5)CC4)cc3)n2)n1` [Ex.-2, 6-(6-aminopyrazin-2-yl)-N-(4-(4-(oxetan-3-yl)piperazin-1-yl)phenyl)imidazo[1,2-a]pyrazin-8-amine] the “Hheps CL” value was 0.917 mL/min/kg.
For `Nc1cncc(-c2cn3ccnc3c(Nc3ccc(N4CCO[C@@H](CO)C4)cc3)n2)n1` [Ex.-3, (R)-(4-(4-((6-(6-aminopyrazin-2-yl)imidazo[1,2-a]pyrazin-8-yl)amino)phenyl)morpholin-2-yl)methanol], the “Hheps CL” value was 1.5 mL/min/kg.
With `Cc1c(-c2cncc(N)n2)nc(Nc2ccc(N3CCN(C4COC4)CC3)cc2)c2nccn12` [Ex.-4, 6-(6-aminopyrazin-2-yl)-5-methyl-N-(4-(4-(oxetan-3-yl)piperazin-1-yl)phenyl)imidazo[1,2-a]pyrazin-8-amine] the “Hheps CL” value was 1.3 mL/min/kg.
For `Nc1cncc(-c2cn3ccnc3c(Nc3ccc(N4CCN(C5COC5)CC4)c(OCCO)c3)n2)n1` [Ex.-5, 2-(5-((6-(6-aminopyrazin-2-yl)imidazo[1,2-a]pyrazin-8-yl)amino)-2-(4-(oxetan-3-yl)piperazin-1-yl)phenoxy)ethanol], the “Hheps CL” value was 1.2 mL/min/kg.
In the case of `Nc1cncc(-c2cn3ccnc3c(Nc3ccc(N4CCN(CC(CO)CO)CC4)cc3)n2)n1` [Ex.-6, 2-((4-(4-((6-(6-aminopyrazin-2-yl)imidazo[1,2-a]pyrazin-8-yl)amino)phenyl)piperazin-1-yl)methyl)propane-1,3-diol], the “Hheps CL” value is reported as 1.3 mL/min/kg.
With `Cc1ncc(-c2cn3ccnc3c(Nc3ccc(N4CCN(C5COC5)CC4)c(OCCO)c3)n2)nc1N` [Ex.-7, 2-(5-((6-(6-amino-5-methylpyrazin-2-yl)imidazo[1,2-a]pyrazin-8-yl)amino)-2-(4-(oxetan-3-yl)piperazin-1-yl)phenoxy)ethanol] the “Hheps CL” value was 0.83 mL/min/kg.
